The values below come from US6303612A, “Derivatives of hydroxyphenylsulfanylbenzoic and hydroxphenylsulfanylarylacetic acids” (Leciva, A.S., priority 1998, dated 2001).

The term pIC50 denotes the IC50 on a negative log10 scale, so that one unit is a factor of ten. As usually defined, the IC50 is the concentration needed to halve the response being measured.

Test [1] has as its system LTB4 production in rat polymorphonuclear cells. The test can be described thus: Ex vivo inhibition of LTB4 production (LTB4 biosynthesis). The class given is cell-based. The note with it: for Inh. of LTB4 biosynth., %: at 30 μg (%/μg); for IC50: Rattus norvegicus, read-out: Inh. of LTB4 biosynth., IC50. How it is done:
Ex vivo Inhibition of LTB4 Production The production of LTB4 was determined in rat polymorphonuclear cells from pleural exudate elicited by heat-activated rat serum (Palmer R. M. J., Salmon J. A.: Immunology 50, 65 (1983)). The cells were stimulated with the Ca ionophore A 23187 (Sigma) and incubated with various concentrations of the drugs tested. The sample containing only buffer was used for the determination of unaffected biosynthesis; the complete inhibition was measured in a sample with 100 μg of NDGA in 1 ml. LTB4 was determined in supernatant using a commercial RIA kit (Amersham).

The target in test [2] is LTB4 receptor (Cavia porcellus, UniProt H0VYV8). In words: LTB4 receptor binding study. The settings on record: 3H-LTB4, guinea-pig spleen membranes; for pIC50: read-out: Inh. of LTB4 rec. binding, IC50; for inhibition at 20 µM: read-out: Inh. of LTB4 rec. binding, %. How it is done: LTB4 Receptor Binding Study
LTB4 receptor, sequence (H0VYV8 1-348): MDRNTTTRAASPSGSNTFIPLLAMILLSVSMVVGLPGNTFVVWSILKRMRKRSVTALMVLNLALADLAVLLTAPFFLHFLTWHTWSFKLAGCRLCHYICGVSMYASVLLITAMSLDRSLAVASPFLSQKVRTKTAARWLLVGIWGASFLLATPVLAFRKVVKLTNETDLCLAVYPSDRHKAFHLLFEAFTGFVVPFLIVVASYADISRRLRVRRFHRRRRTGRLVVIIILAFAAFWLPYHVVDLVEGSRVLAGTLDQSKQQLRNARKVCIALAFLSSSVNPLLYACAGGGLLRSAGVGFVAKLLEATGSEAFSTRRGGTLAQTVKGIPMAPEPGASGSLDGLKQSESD
A slightly modified method of Cheng and coworkers (Cheng J. B. et al.: J. Pharm. Expl. Ther. 236, 126 (1986)) was used. The membrane fraction was prepared from male guinea-pig spleen; 2 mg of membranes were incubated with 0.3 nM ^3 H-LTB4 at 25° C. for 30 min in 100 μl of the incubated mixture. The nonspecific binding was determined in the presence of 0.1 μM LTB4. The membranes were filtered though Whatman GF/C paper and washed triply with buffer. The radioactivity was measured by liquid scintillation spectrometry, and the specific binding of ^3 H-LTB4 to the receptor was determined.

Test [3] addresses T1, LTD4 receptor (Cavia porcellus, UniProt Q2NNR5).
T1 construct: The membrane fraction was prepared from male guinea-pig lungs; from tissue; host or cells: male guinea-pig lung membranes
T1 sequence (Q2NNR5 1-340): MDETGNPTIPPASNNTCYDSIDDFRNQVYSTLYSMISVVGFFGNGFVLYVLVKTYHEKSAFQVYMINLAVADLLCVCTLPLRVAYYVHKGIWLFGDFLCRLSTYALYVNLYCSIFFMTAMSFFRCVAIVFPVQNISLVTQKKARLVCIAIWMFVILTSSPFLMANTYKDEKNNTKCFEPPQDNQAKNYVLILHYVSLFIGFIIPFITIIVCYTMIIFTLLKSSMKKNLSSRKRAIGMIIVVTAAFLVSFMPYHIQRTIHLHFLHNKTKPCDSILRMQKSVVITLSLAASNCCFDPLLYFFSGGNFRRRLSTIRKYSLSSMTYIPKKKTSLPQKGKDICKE
In words: LTD4 receptor binding study. The settings on record: 3H-LTD4, guinea-pig lung membranes; for pIC50: read-out: Inh. of LTD4 rec. binding, IC50; for inhibition at 100 µM / inhibition at 20 µM: read-out: Inh. of LTD4 rec. binding, %. How it is done:
LTD4 Receptor Binding Study
This study was performed according to the method of Burns and coworkers (Burns R. F. et al.: Life Sci. 33, 645 (1983)). The membrane fraction was prepared from male guinea-pig lungs, and 4 mg of this fraction were incubated with 0.4 nM ^3 H-LTD4 for 60 min at 25° C. in 100 μl of the incubated mixture. The nonspecific binding was determined in the presence of 0.1 μM LTD4. The filtration of the membranes, washing, and radioactivity measurement were as above.

Test [4] has as its system peroxidation of lipids from the hepatic cells membranes. The test can be described thus: Antioxidant effect in vitro. The class given is biochemical. The settings on record: at 100 μg. The text has this: Antioxidant Effect in vitro
The end-product, malonic dialdehyde, was transformed to coloured complex with thiobarbituric acid and determined spectrophotometrically. The antioxidant effect was expressed in % of peroxidation inhibition in the presence of the compound tested in comparison to a control sample.

In test [5] the test system is Wistar-Han rats. The test can be described thus: Inhibition of carrageenan edema. The settings on record: for inhibition in vivo at 100 mg/kg: Rattus norvegicus, read-out: CE: inhibition of carrageenan-induced edema, % of inh. The test is classed as in vivo.
The test system of test [6] is rats. The test can be described thus: Inhibition of carrageenan-induced pleuritis in rats. The class given is in vivo. The note with it: for inhibition in vivo at 100 mg/kg: Rattus norvegicus, po, 4 h. How it is done:
Inhibition of Carrageenan-induced Pleuritis in Rats
(Hidaka T. J.: Pharm. Pharmacol. 38, 242 (1986) 1 ml of 0.5% carrageenan solution in saline was administered intrapleurally to experimental animals under mild ether anesthesia. Test drugs were administered in single oral dose 1 h before carrageenan injection, 4 h following the carrageenan application the rats were killed and exudate was withdrawn from opened pleural cavity. The volume of exudate, its cellularity and total cell number were determined.

Test [7] relates to male mice. The test can be described thus: Inhibition of arachidonic acid-induced ear inflammation in mice. The settings on record: Mus musculus, po, 1 h. The test is classed as in vivo. How it is done: Inhibition of Arachidonic Acid-induced Ear Inflammation in Mice (Opas E. E. et al.: J. Invest. Dermatol. 84, 253 (1985) Ear inflammation was induced in male mice by 20 μl of arachidonic acid dissolved in acetone (concentration 100 mg/ml). The mice were sacrificed 1 h after application of arachidonic acid and the ears were cut off by standard means. The other, vehicle-treated ear of the same animal served as a control. The degree of ear hyperemia and the weight of ear lobes were evaluated. Test compounds were administered orally 1 h before the induction of inflammation.

[8] abbreviates: read-out: Experimental pleuritis, A: volume of exudate in pleural cavity, % of inh.
The mark [9] stands for this setting: read-out: Experimental pleuritis, C: cellularity in a volume unit, % of inh.
Where [10] appears, read: values with mark n: p > 0.05, read-out: Ear edema, D: edema of ear lobe, % of inh.
Setting [11] is: values with mark n: p > 0.05, read-out: Ear edema, E: hyperemia of ear lobe, % of inh.
The mark [12] stands for this setting: dose 100 mg/kg, oral, values with mark n: p > 0.05, read-out: Experimental pleuritis, A: volume of exudate in pleural cavity, % of inh.
The mark [13] stands for this setting: dose 100 mg/kg, oral, values with mark n: p > 0.05, read-out: Experimental pleuritis, B: number of cells, % of inh.
The mark [14] stands for this setting: dose 100 mg/kg, oral, values with mark n: p > 0.05, 100 mg/kg.

pIC50: −log10 of the molar value. Values after ≈ are worked out from the molar mass of the structure shown. Where a name gives a salt, the structure may show the parent alone. Read-outs that look alike come from different tables or passages of the source.

For `CCCc1c(OCCCOc2ccc(Sc3ccccc3C(=O)O)cc2)ccc(C(C)=O)c1O` [Compound 4], in test [1], the “Inh. of LTB4 biosynth., %” value amounted to 100%. The pIC50 is 4.89 in test [2] and 4.98 in test [3]. In addition, the inhibition at 20 µM in test [2] (at 20 μM) was 47%. In test [3], the inhibition at 100 µM was 100%. In addition, the “Antiox. effect, % of peroxidation inhibition” value in test [4] was found to be 34%. For the same molecule, the inhibition in vivo at 100 mg/kg in test [5] came out at 35%; in test [6] (setting [8]), 10%; in test [6] (read-out: Experimental pleuritis, B: number of cells, % of inh.) it was 35%; in test [6] (setting [9]), 30%. Also, the inhibition in vivo at 200 mg/kg stood at 6% in test [7] (setting [10]) and 2% in test [7] (setting [11]).
For `O=C(O)Cc1ccc(Sc2ccc(OCc3ccc4ccccc4n3)cc2)cc1` [Compound 30, 4-(4-(Quinoline-2-ylmethoxy)phenylsulfanyl)phenylacetic Acid], the IC50 in test [1] stood at 0.004 µg/mL (≈ 0.00996 µM). Besides, in test [1], the “Inh. of LTB4 biosynth., %” value was determined as 94%. Besides, the negative logarithm of the IC50 (pIC50) in test [2] was 4.69; in test [3], 5.64. For the same molecule, the inhibition at 20 µM in test [2] (at 20 μM) worked out at 43%; in test [3], 80%. Also, the “Antiox. effect, % of peroxidation inhibition” value in test [4] worked out at 14%. The inhibition in vivo at 100 mg/kg in test [5] (dose 100 mg/kg) is 41%; in test [6] (setting [12]), 27%; in test [6] (setting [13]), 30%; in test [6] (dose 100 mg/kg, oral, values with mark n: p > 0.05, read-out: Experimental pleuritis, C: cellularity in a volume unit, % of inh.), 2%.
As to `O=C(O)c1ccccc1Sc1ccc(OCCCCN2CCN(Cc3ccc(Cl)cc3)CC2)cc1` [Compound 14], in test [1], the IC50 was found to be 9.5 µg/mL (≈ 18.6 µM) and the “Inh. of LTB4 biosynth., %” value is 100%. Moreover, the inhibition at 20 µM in test [2] (at 20 μM) amounted to 16%. Further, in test [3], the pIC50 was 4.48 and the inhibition at 100 µM stood at 86%.
On to `COc1cc(C(=O)NS(=O)(=O)c2ccccc2C)ccc1Cc1cn(C)c2ccc(NC(=O)OC3CCCC3)cc12` [Accolate, reference compound], for which, in test [1], the IC50 amounted to 1.12 µg/mL (≈ 1.95 µM) and the “Inh. of LTB4 biosynth., %” value was 98%. Moreover, the inhibition at 20 µM in test [2] (at 20 μM) was 0%. Besides, in test [3], the pIC50 is 7.52 and the inhibition at 100 µM is 94%.
Consider `O=C(O)c1ccc(Sc2ccc(OCc3ccc4ccccc4n3)cc2)cc1` [Compound 24, Tromethammonium salt of 4-(4-(Quinoline-2-ylmethoxy)phenylsulfanyl)benzoic Acid], for which, in test [1], the “Inh. of LTB4 biosynth., IC50” value came out at 0.18 µg/mL and the “Inh. of LTB4 biosynth., %” value was determined as 99%. Further, the pIC50 in test [2] was 4.83. Besides, in test [2] (at 20 μM), the “Inh. of LTB4 rec. binding, %” value is 42%. For the same molecule, in test [3], the pIC50 was 6.51 and the inhibition at 20 µM was determined as 95%. For the same molecule, the “Antiox. effect, % of peroxidation inhibition” value in test [4] is 13%. In test [5] (dose 100 mg/kg), the “CE: inhibition of carrageenan-induced edema, % of inh.” value came to 27%. In test [6] (setting [14]), the “Experimental pleuritis, A: volume of exudate in pleural cavity, % of inh.” value was found to be 23%; the “Experimental pleuritis, B: number of cells, % of inh.” value is on record as 32%; the “Experimental pleuritis, C: cellularity in a volume unit, % of inh.” value stood at 6%.
As for `O=C(O)Cc1ccccc1Sc1ccc(OCc2ccc3cc(Cl)ccc3n2)cc1` [Compound 32, 2-(4-(6-Chloroquinoline-2-ylmethoxy)phenylsulfanyl)phenylacetic Acid], the “Inh. of LTB4 biosynth., %” value in test [1] worked out at 62%. The pIC50 in test [2] was 4.52. In test [2] (at 20 μM), the inhibition at 20 µM worked out at 38%. For the same molecule, in test [3], the pIC50 is 6.00 and the inhibition at 100 µM came out at 81%. In addition, the “Antiox. effect, % of peroxidation inhibition” value in test [4] is on record as 14%.
Regarding `O=C(O)c1ccccc1Sc1ccc(OCCN2CCN(Cc3ccc(Cl)cc3)CC2)cc1` [Compound 11, Hydrogenmaleate of 2-(4-(2-(1-(4-Chlorobenzyl)piperazin-4-yl)ethoxy)-phenylsulfanyl)benzoic Acid], in test [1], the IC50 stood at 0.02 µg/mL (≈ 0.0414 µM) and the “Inh. of LTB4 biosynth., %” value stood at 97%. In addition, the inhibition at 20 µM in test [2] (at 20 μM) was 25%. Besides, in test [3], the pIC50 was 3.92 and the inhibition at 100 µM was determined as 36%. The “Antiox. effect, % of peroxidation inhibition” value in test [4] was found to be 10%. In test [5] (dose 100 mg/kg), the inhibition in vivo at 100 mg/kg came to 33%. Moreover, in test [7] (setting [10]), the inhibition in vivo at 200 mg/kg stood at 22%. Also, the inhibition in vivo at 200 mg/kg in test [7] (setting [11]) stood at 0%.
As for `COC(=O)c1ccccc1Sc1cccc(OCCCN2CCN(CCO)CC2)c1` [Compound 15, Bis-hydrogenmaleate of Methyl 2-(3-(3-(1-(2-hydroxyethyl)piperazin-4-yl)-propoxy)phenyl-sulfanyl)benzoate], the IC50 in test [1] is 12.6 µg/mL (≈ 29.3 µM). For the same molecule, the “Inh. of LTB4 biosynth., %” value in test [1] is given as 88%. Further, the inhibition at 100 µM in test [3] was 22%. In test [4], the “Antiox. effect, % of peroxidation inhibition” value is 0%. Besides, the inhibition in vivo at 100 mg/kg in test [5] (dose 100 mg/kg) is 9%; in test [6] (setting [12]), 2%; in test [6] (setting [13]), 15%. Besides, the inhibition in vivo at 200 mg/kg in test [7] (setting [10]) is 7%; in test [7] (setting [11]), 3%.
For the molecule `NC(=O)N1C(=O)C(=C(O)c2cccs2)c2cc(Cl)ccc21` [Tenidap Na^+, reference compound], the IC50 in test [1] was 1.04 µg/mL (≈ 3.24 µM). Also, in test [1], the “Inh. of LTB4 biosynth., %” value came out at 100%. In addition, the inhibition at 20 µM in test [2] (at 20 μM) was determined as 8%. The negative logarithm of the IC50 (pIC50) in test [3] was 3.38. Also, the inhibition at 100 µM in test [3] was 10%. The inhibition in vivo at 100 mg/kg in test [5] (dose 100 mg/kg) was found to be 61%; in test [6] (setting [13]), 73%; in test [6] (setting [8]), 72%; in test [6] (setting [9]) it was 6%. Also, the inhibition in vivo at 200 mg/kg came to 14% in test [7] (setting [10]) and 76% in test [7] (setting [11]).
